The values below come from patent publication US9125866B1, “Antidepressant compounds” (KING SAUD UNIVERSITY, priority 2015, dated 2015).

The experiment relates to mice subjected to the forced swim test. Kind of experiment: Forced swim test on mice (duration of immobility). It is filed as in vivo, Swiss white mice. As to conditions: for Duration of immobility in seconds during the last four minutes of the six minute period: 20 minutes before test, N=4; for Activity in reducing immobility time compared with control (in words): 40 mg/Kg; for Percentage decrease in immobility times for dosage of 40 mg/kg: 40 mg/kg i.p.; for Percentage decrease in immobility times for dosage of 40 mg/kg / Percentage decrease in immobility times for dosage of 80 mg/kg: versus control; for Percentage decrease in immobility times for dosage of 80 mg/kg: 80 mg/kg i.p. The source says: The antidepressant compounds can be used to treat depression. […] As exemplified in such technical articles as I Weiner et al., “A comparison of drug effects in latent inhibition and the forced swim test differentiates between the typical antipsychotic haloperidol, the atypical antipsychotics clozapine and olanzapine, and the antidepressants imipramine and paroxetine”, Behavioural Pharmacology (2003), Vol. 14, pp. 215-22, and D. A. Slattery et al., “Using the rat forced swim test to assess antidepressant-like activity in rodents”, Nature Protocols (2012), Vol. 7, pp. 1009-1014, the forced swim test is recognized in the pharmacological art as a standard test protocol for assessing antidepressant-like behavior induced by antidepressant compounds. The forced swimming test measures the duration of immobility of rodents exposed to the threat of drowning. Mice normally swim for 1-2 minutes and then turn helpless and become immobile. […] For example, the mouse may appear to float, i.e. almost immobile and with its head above water. The majority of known antidepressant drugs decrease the duration of immobility.
To test for the presence of anti-depressant activity of the test compounds 3, 4, 5 and 6, the forced swim test was conducted on mice. The forced swimming test was conducted generally in accordance with the procedures set forth in David, D. J. P. et al., Psychopharmacology (2003), 166, 373-382, with the exception of a slight modification in the dimensions of the vessel used as a swimming pool. The vessel was a glass cylinder having an internal diameter of 25 cm and included water having a depth of 15 cm and a temperature of about 22±2° C. Swiss white mice weighing 25 g each were divided into 17 groups (N=4). One group served as control and the others divided for each test compound.
The test compounds were dissolved in DMSO and administered in 4 dose levels of 10, 20, 40, 80 mg/kg, respectively, intraperitoneally (“i.p.”). The antidepressant compounds were administered to the mice 20 minutes before starting the swimming test. The control group was administered the vehicle only, in the same volume. Each mouse was allowed to stay in the swimming pool for 6 minutes. The duration of the period of immobility was measured at the beginning of the third minute of placing the mouse into the swimming pool and ended by the end of the sixth minute. In other words, the duration of immobility observed only during the last four minutes was recorded. For each test compound dose, the time of immobility was calculated and then averaged.

Where [1] appears, read: 40 mg/kg i.p. in DMSO, * P<0.05 compared with control.
[2] abbreviates: 80 mg/kg i.p. in DMSO, * P<0.05 compared with control.

For the compound `O=CC1CC2c3c(Cl)cccc3C1c1cccc(Cl)c12` (stereo not shown) [Compound 4, 1,8-dichloro-9,10-dihydro-9,10-ethanoanthracene-11-carbaldehyde], the “Duration of immobility in seconds during the last four minutes of the six minute period” value (shortened to “Duration of immobility”) came to 240 s (10 mg/kg i.p. in DMSO), 240 s (20 mg/kg i.p. in DMSO), 240 s under setting [1] and 240 s under setting [2]. Under “all doses tested (10, 20, 40, 80 mg/kg i.p.)”, the “Activity in the forced swim test (in words)” value was “completely inactive”.
Regarding `O=CC1CC2c3cccc(Cl)c3C1c1c(Cl)cccc12` (stereo not shown) [Compound 3, 4,5-dichloro-9,10-dihydro-9,10-ethanoanthracene-11-carbaldehyde], the “Percentage decrease in immobility times for dosage of 40 mg/kg” value worked out at 28.9% and the “Percentage decrease in immobility times for dosage of 80 mg/kg” value amounted to 71.1%. Also, the “Duration of immobility” value (10 mg/kg i.p. in DMSO) worked out at 240 s. The “Duration of immobility” value (20 mg/kg i.p. in DMSO) was determined as 240 s. The “Activity in reducing immobility time compared with control (in words)” value (p<0.05, N=4) is reported as “significantly active in reducing immobility time”. In addition, under setting [1], the “Duration of immobility” value is 160 ± 11* seconds. Besides, the “Immobility time compared with the control (in words)” value (80 mg/kg dosage, p<0.05, N=4) is listed as “significant decrease in immobility time”. Besides, the “Duration of immobility” value under setting [2] was 65 ± 4* seconds.
For `CNCC1CC2c3cccc(Cl)c3C1c1c(Cl)cccc12` (stereo not shown) [Compound 5], the “Percentage decrease in immobility times for dosage of 40 mg/kg” value was determined as 37.8% and the “Percentage decrease in immobility times for dosage of 80 mg/kg” value is 84.0%. Further, the “Duration of immobility” value (10 mg/kg i.p. in DMSO) worked out at 240 s. Moreover, under “20 mg/kg i.p. in DMSO”, the “Duration of immobility” value came out at 200 ± 12.3 s. Also, the “Activity in reducing immobility time compared with control (in words)” value (p<0.05, N=4) was “significantly active in reducing immobility time”. The “Duration of immobility” value under setting [1] is listed as 140 ± 7.9* seconds. Besides, for the setting “80 mg/kg dosage, p<0.05, N=4”, the “Activity compared with compound 3 (in words)” value was “significantly more active than compound 3” and the “Immobility time compared with the control (in words)” value is “significant decrease in immobility time”. Also, the “Duration of immobility” value under setting [2] is listed as 36 ± 4.9* seconds.
